Measured values taken from patent US20260034119A1, “5-METHOXY-N,N-[…][…], THEIR […], AND METHODS FOR TREATMENT OF NEUROLOGICAL, […], AND SUBSTANCE USE DISORDERS” (priority 2023, published 2026).
Numbering of substitutions follows the chain as printed. Entries after “also recorded” stand apart in the source; their conditions may differ. Like-named read-outs stand apart in the source and are kept apart here.

Experiments:
MAO-A = target: T1, MAO-A (Homo sapiens, UniProt P21397); assay: MAO-A activity (metabolism of compound); conditions: versus the DMT analogs
T1 sequence (P21397 1-527): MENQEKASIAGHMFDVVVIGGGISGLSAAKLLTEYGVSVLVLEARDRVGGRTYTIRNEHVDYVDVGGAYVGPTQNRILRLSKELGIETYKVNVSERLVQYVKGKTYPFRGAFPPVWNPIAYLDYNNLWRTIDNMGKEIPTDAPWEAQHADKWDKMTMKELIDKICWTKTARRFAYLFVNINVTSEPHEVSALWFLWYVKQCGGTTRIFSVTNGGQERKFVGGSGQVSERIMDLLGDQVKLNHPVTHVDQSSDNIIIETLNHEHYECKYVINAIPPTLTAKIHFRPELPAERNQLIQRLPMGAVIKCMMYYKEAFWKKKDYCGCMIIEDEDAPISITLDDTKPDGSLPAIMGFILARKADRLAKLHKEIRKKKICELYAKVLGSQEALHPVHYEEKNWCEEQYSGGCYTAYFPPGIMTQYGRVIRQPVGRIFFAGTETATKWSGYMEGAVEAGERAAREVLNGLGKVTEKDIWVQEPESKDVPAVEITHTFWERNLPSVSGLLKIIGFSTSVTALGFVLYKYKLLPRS

5-HT1A [1] = target: T2, 5-HT1A (Homo sapiens, UniProt P08908); assay: BRET signaling assay: 5-HT1A-mediated activation of heterotrimeric Gi1 (TRUPATH, HEK293-T)
mice = assay: Open field locomotor activity; format: in vivo, mouse; conditions: mice, s.c.
5-HT2B = 5-HT2B (Homo sapiens, UniProt P41595); assay: IP1 functional assay 5-HT2B; format: cell-based; conditions: for Emax: read-out: 5-HT2B (IP1) Emax (%5-HT)
5-HT2A [2] = target: T3, 5-HT2A (Homo sapiens, UniProt P28223); assay: cell-based; parameters: expressed in transfected cells; host or cells: HEK293-T; conditions: for Emax: read-out: 5-HT2A (IP1) Emax (%5-HT)
C57BL/6J mice [3] = assay: Head twitch response (HTR); format: in vivo, mouse; conditions: s.c., presence or absence of 5-HT1A antagonist WAY-100635
Protocol: The head-twitch response evaluation was performed by trained observers who were blinded to both drug and dose. Mice were habituated to the testing room 30 min. The body weight of each mouse was recorded. The HTR was defined as a rapid rotational movement of the head around the longitudinal axis of the animals' body. Mice were administered with vehicle or WAY100,635 (1 mg/kg or 2 mg/kg, sc). Fifteen minutes after the pretreatment injection mice were administered either 4F, 5-MeO-MET (0.1, 0.3, 1 or 3 mg/kg, sc) or 5-MeO-MET (0.3, 1, 3, and 10 mg/kg, sc) and placed in a novel observation cage. An overhead camera (GoPro HERO9 at a 120 Hz, San Mateo, CA, US) recorded their movements. Observers scored HTR from recorded footage for the first 10-min period.

5-HT1A N386V = target: T4, 5-HT1A N386V (Homo sapiens, UniProt P08908, N386V); assay: Gi1 BRET at mutant 5-HT1A N386V; format: cell-based
T4 construct: expressed in transfected cells; host or cells: HEK293-T
T4 sequence (P08908 1-422 N386V): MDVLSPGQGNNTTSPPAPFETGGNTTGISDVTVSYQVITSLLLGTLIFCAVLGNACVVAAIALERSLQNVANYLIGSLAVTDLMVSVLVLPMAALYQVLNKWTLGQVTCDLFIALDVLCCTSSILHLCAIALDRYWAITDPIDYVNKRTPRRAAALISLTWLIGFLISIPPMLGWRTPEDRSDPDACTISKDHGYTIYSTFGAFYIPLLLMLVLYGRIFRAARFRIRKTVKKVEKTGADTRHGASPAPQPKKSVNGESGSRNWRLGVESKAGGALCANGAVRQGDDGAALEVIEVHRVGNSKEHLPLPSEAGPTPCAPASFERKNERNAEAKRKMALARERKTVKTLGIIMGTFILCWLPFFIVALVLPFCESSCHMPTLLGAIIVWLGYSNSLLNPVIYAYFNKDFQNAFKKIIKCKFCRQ

5-HT2A V366N = target: T5, 5-HT2A V366N (Homo sapiens, UniProt P28223, V366N); assay: Gq BRET at mutant 5-HT2A V366N; format: cell-based
T5 construct: expressed in transfected cells; host or cells: HEK293-T

5-HT2A [4] = target: T3, 5-HT2A; assay: cell-based
5-HT1A A365N = target: T6, 5-HT1A A365N (Homo sapiens, UniProt P08908, A365N); assay: Gi1 BRET at mutant 5-HT1A A365N; format: cell-based
T6 construct: expressed in transfected cells; host or cells: HEK293-T
T6 sequence (P08908 1-422 A365N): T4 sequence (P08908 1-422 N386V) with A365N, V386N

5-HT2A [5] = target: T3, 5-HT2A; conditions: relative to 5-MeO-DMT
human 5-HT1A = target: T7, human 5-HT1A (Homo sapiens, UniProt P08908); assay: cell-based
T7 sequence (P08908 1-422): T4 sequence (P08908 1-422 N386V) with V386N

5-HT1A [6] = target: T2, 5-HT1A; assay: cell-based
[7] = Microsomal stability, human liver microsomes; format: in vitro ADME; conditions: versus the DMT analogs
Protocol: Microsomal incubations were carried out in 96-well plates in 5 aliquots of 30 μL each (one for each time point). Liver microsomal incubation medium comprised of phosphate buffer (100 mM, pH 7.4), MgCl2 (3.3 mM), NADPH (3 mM), glucose-6-phosphate (5.3 mM), glucose-6 phosphate dehydrogenase (0.67 units/ml) with 0.42 mg of liver microsomal protein per ml. In the control reactions the NADPH-cofactor system was substituted with phosphate buffer. Test compounds (2 μM, final solvent concentration 1.6%) were incubated with microsomes at 37° C., shaking at 100 rpm. Each reaction was performed in duplicates. Five time points over 90 minutes were analyzed. The reactions were stopped by adding 5 volumes of methanol containing internal standard to incubation aliquots, followed by protein sedimentation by centrifuging at 5500 rpm for 4 minutes. Supernatants were analyzed using the HPLC system coupled with tandem mass spectrometer. The elimination constant (kel), half-life (t1/2) and intrinsic clearance (Clint) were determined in plot of […] versus time, using linear regression analysis.

C57BL/6J mice [8] = assay: Sucrose preference test after chronic social defeat stress; format: in vivo, mouse; conditions: stressed mice, relative to vehicle-treated animals
From the text: The sucrose preference test is a volitional two-bottle choice procedure in which mice are given the choice between consuming water and a 1% sucrose solution. This paradigm has been used extensively to assess the effects of stress-induced anhedonia. On day 10 of CSDS mice were individually housed and habituated to two bottles containing just water. Twenty-four hours later, following the SI test, one bottle was replaced with a 1% sucrose solution (w/v) made with water from the animal vivarium. Mice had ad libitum overnight access to both bottles and preference for sucrose over water was calculated as follows: [sucrose/(sucrose+water)*100]. Data were averaged from two independent experiments. A total of 27 mice were administered vehicle (9 control, 18 stress), 27 received 4-F, 5-MeO-PyrT (9 control, 18 stress), 15 received WAY-100635 (5 control, 10 stress), and 15 received 4-F, 5-MeO-PyrT+WAY-100635 (5 control, 10 stress). More animals were used for the stressed groups due to the inherent resilience of mice to social defeat stress (Krishnan et al. 2007). Analysis of different treatment conditions of control and stressed animals was done in GraphPad Prism using two-way ANOVA.

T3 sequence (P28223 whole entry): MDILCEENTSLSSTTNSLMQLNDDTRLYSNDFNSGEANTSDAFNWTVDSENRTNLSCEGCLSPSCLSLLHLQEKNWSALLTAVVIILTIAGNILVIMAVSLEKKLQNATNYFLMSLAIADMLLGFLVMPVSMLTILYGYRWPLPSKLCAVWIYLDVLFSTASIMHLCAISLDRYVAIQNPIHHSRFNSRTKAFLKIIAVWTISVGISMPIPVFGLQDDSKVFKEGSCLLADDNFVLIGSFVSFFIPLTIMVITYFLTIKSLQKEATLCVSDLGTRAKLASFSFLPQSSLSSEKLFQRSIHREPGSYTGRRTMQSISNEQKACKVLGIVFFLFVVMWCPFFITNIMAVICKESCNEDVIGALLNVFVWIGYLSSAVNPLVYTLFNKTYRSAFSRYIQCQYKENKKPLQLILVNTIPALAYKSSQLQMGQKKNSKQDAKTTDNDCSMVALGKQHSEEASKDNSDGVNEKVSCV
5-HT2B, sequence (P41595 whole entry, species assumed): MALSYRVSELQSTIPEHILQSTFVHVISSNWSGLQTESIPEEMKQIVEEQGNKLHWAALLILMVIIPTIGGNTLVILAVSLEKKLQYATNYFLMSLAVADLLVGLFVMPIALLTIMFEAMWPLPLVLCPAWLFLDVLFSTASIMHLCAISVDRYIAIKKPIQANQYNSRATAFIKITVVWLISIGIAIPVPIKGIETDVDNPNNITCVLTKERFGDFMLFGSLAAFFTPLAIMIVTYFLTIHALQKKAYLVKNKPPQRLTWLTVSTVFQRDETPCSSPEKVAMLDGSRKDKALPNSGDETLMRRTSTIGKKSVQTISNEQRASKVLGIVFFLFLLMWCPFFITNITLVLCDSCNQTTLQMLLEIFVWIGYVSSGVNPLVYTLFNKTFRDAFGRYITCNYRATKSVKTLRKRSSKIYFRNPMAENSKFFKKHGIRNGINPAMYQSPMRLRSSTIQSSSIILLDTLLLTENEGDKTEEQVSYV
T2 sequence (P08908 whole entry): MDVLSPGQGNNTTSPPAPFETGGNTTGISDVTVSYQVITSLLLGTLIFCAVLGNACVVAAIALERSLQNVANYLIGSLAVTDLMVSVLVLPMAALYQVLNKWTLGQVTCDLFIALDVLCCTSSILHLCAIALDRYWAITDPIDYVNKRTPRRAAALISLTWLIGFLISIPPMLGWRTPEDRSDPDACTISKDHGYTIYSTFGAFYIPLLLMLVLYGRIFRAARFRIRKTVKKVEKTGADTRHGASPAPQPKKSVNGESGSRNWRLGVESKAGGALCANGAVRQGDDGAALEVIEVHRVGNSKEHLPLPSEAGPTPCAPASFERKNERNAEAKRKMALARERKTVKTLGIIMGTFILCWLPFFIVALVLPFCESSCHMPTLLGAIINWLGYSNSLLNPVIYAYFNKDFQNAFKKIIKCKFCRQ
T5 sequence (P28223 whole entry V366N): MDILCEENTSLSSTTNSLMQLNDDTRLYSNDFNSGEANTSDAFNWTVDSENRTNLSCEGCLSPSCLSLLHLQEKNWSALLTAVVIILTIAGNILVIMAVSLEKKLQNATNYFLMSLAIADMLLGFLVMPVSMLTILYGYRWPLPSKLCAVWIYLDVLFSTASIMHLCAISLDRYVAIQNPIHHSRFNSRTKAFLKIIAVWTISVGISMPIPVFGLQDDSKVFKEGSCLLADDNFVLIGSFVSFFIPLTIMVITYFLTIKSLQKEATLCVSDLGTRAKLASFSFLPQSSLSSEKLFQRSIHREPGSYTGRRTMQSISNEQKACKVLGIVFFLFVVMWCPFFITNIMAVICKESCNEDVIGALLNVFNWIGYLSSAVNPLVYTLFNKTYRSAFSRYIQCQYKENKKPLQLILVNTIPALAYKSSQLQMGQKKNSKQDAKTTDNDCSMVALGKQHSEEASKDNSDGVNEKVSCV

C=CCN(C)CCc1c[nH]c2ccc(OC)c(F)c12 [4-F, 5-MeO MALT]
MAO A metabolism (MAO-A): markedly slower MAO A metabolism versus the DMT analogs

CCN(C)CCc1c[nH]c2ccc(OC)cc12 [Compound 5-MeO-MET]
EC50 (5-HT1A [1]; Gi BRET EC50): 25.9 nM | locomotor suppression in the open field (OF) test (mice): dose-dependent locomotor suppression | EC50 (5-HT2B; Table 3, read-out: 5-HT2B (IP1) EC50): 130 nM | Emax (5-HT2B; Table 3): 62% | EC50 (5-HT2A [2]): 96 nM | Emax (5-HT2A [2]): 107% | head-twitch response (HTR), measure of 5-HT2A-mediated hallucinogenic activity (C57BL/6J mice [3]): robust HTR in the presence of WAY100; also recorded: robust dose-dependent activity

COc1ccc2[nH]cc(CCN3CCCC3)c2c1 [Compound 18, 5-methoxy-N,N-pyrrolidinyl-tryptamine]
selectivity for 5-HT1A>5-HT2A (5-HT1A [1]; 5-HT1A Gi BRET vs 5-HT2A Gq BRET): > 38 fold | EC50 (5-HT1A [1]; EC50 (nM), Gi1 BRET, 5-HT1A WT): 2.13 nM | EC50 (5-HT1A [1]; Gi BRET EC50): 2.1 nM | increase in 5-HT1A>5-HT2A selectivity (5-HT1A [1]; cyclization of the amine moiety, relative to 5-MeO-DMT): ~38 fold | EC50 (5-HT1A N386V): 24.9 nM | EC50 (5-HT2A V366N): 55.6 nM | EC50 (5-HT2A [4]; EC50 (nM), Gq BRET, 5-HT2A WT): 81.5 nM | EC50 (5-HT1A A365N; EC50 (nM), Gi1 BRET, 5-HT1A A365N^6.55): 28.9 nM

COc1ccc2[nH]cc(CCN(C)C)c2c1F [Compound 25, 2-(4-fluoro-5-methoxy-1H-indol-3-yl)-N,N-dimethylethane-1-amine]
decrease in potency at 5-HT2A (5-HT2A [5]): 3 fold | Efficacy as %5HT (SEM) 5-HT1A BRET Gi1 (5-HT1A [1]): 103.5 1.59) %5HT | increase in signaling potency at 5-HT1A (5-HT1A [1]): 14 fold | EC50 (5-HT1A [1]; EC50 (nM)): 1.77 nM | EC50 (5-HT1A [1]; EC50 (nM) 5-HT1A BRET Gi1): 1.77 nM | EC50 (human 5-HT1A): 0.186 nM | EC50 (5-HT1A N386V): 3.71 nM | EC50 (5-HT2A V366N): 392 nM | EC50 (5-HT2A [4]): 86.5 nM | EC50 (5-HT2A [4]; EC50 (nM), Gq BRET, 5-HT2A WT): 86.5 nM | EC50 (5-HT1A A365N): 20.1 nM

CCCN(C)CCc1c[nH]c2ccc(OC)c(F)c12 [Compound 28, N-(2-(4-fluoro-5-methoxy-1H-indol-3-yl)ethyl)-N-methylpropan-1-amine]
EC50 (5-HT1A [6]): 3.06 nM | EC50 (human 5-HT1A): 0.417 nM | microsomal stability in human microsomes [7]: greater stability in human microsomes versus the DMT analogs | EC50 (5-HT2A [4]): 115 nM | EC50 (5-HT2B): 72 nM | Emax (5-HT2B; Table 3): 47% | EC50 (5-HT2A [2]): 250 nM | Emax (5-HT2A [2]): 106% | MAO A metabolism (MAO-A): markedly slower MAO A metabolism versus the DMT analogs

CCCN(CCC)CCc1c[nH]c2ccc(OC)c(F)c12 [Compound 30, N-(2-(4-fluoro-5-methoxy-1H-indol-3-yl)ethyl)-N-propylpropan-1-amine]
EC50 (5-HT1A [6]): 3.7 nM | EC50 (human 5-HT1A): 1.31 nM | microsomal stability in human microsomes [7]: greater stability in human microsomes versus the DMT analogs | EC50 (5-HT2A [4]): 142 nM | EC50 (5-HT2B): 99 nM | Emax (5-HT2B; Table 3): 86% | EC50 (5-HT2A [2]): 180 nM | Emax (5-HT2A [2]): 100% | MAO A metabolism (MAO-A): markedly slower MAO A metabolism versus the DMT analogs

COc1ccccc1N1CCN(CCN(C(=O)C2CCCCC2)c2ccccn2)CC1 [WAY-100635, reference compound]
sucrose preference (C57BL/6J mice [8]): not statistically significant
